Data on 24 compounds can be found in patent US20230203043A1, “NOVEL IMIDAZOPYRAZINE DERIVATIVES” (Hoffmann-La Roche Inc., priority 2020, published 2023).

Structures are written as SMILES. Where a name gives a salt, the structure may show the parent alone.

For one experiment, the system named is Acinetobacter baumannii ATCC17961. The experiment in a line: Antimicrobial susceptibility testing: 90% growth inhibitory concentration (IC90) determination in Iso-Sensitest broth, OD600 growth. The format is cell-based. As to conditions: Acinetobacter baumannii, ATCC17961, 16 h, read-out: A. baumannii ATCC 17961 IC90 (uM), strain ATCC 17961, OD600 growth over 16 h. A digest of the protocol: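 Growth monitored at 600 nm every 20 min for 16 h at 35±2 °C, inoculum ~5×10^(5) CFU/ml in Iso-Sensitest medium. Compounds in 10-point twofold series, e.g. 50 to 0.097 μM final; 90% inhibitory concentration taken from log-phase growth.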
Regarding `CCc1cc(Nc2nccn3c(-c4cn(CCC#N)nc4C(F)(F)F)cnc23)ccc1C(=O)NCCOCCN` [Example 33, N-[2-(2-aminoethoxy)ethyl]-4-[[3-[1-(2-cyanoethyl)-3-(trifluoromethyl)pyrazol-4-yl]imidazo[1,2-a]pyrazin-8-yl]amino]-2-ethylbenzamide formate], the IC90 (in general, the concentration at which the effect reaches the 90% level) came to 0.269 µM.

With `NC1CC(C(=O)N2CCN(C(=O)c3ccc(Nc4nccn5c(-c6c[nH]nc6C(F)(F)F)cnc45)cc3Cl)CC2)C1` (stereo not drawn) [Example 327, [4-(3-aminocyclobutanecarbonyl)piperazin-1-yl]-[2-chloro-4-[[3-[3-(trifluoromethyl)-1H-pyrazol-4-yl]imidazo[1,2-a]pyrazin-8-yl]amino]phenyl]methanone formate], the IC90 was found to be 0.146 µM.

Consider `O=C(NC1CNC1)N1CCN(C(=O)c2ccc(Nc3nccn4c(-c5c[nH]nc5C(F)(F)F)cnc34)cc2Cl)CC1` [Example 394, N-(azetidin-3-yl)-4-[2-chloro-4-[[3-[3-(trifluoromethyl)-1H-pyrazol-4-yl]imidazo[1,2-a]pyrazin-8-yl]amino]benzoyl]piperazine-1-carboxamide formate], for which the IC90 came out at 0.331 µM.

For `CCc1cc(Nc2nccn3c(-c4cn(CCF)nc4C(F)(F)F)cnc23)ccc1C(=O)NCCOCCN1CCOCC1` [Example 737, 2-ethyl-4-((3-(1-(2-fluoroethyl)-3-(trifluoromethyl)-1H-pyrazol-4-yl)imidazo[1,2-a]pyrazin-8-yl)amino)-N-(2-(2-morpholinoethoxy)ethyl)benzamide formate], the IC90 came to 0.495 µM. On the same count and under the same terms, for `Cc1cc(Nc2nccn3c(-c4c[nH]nc4C(F)(F)F)cnc23)ccc1C(=O)N1CCN(C(=O)[C@@H]2C[C@](C)(O)CN2)CC1` [Example 462, formic acid; [4-[(2S,4S)-4-hydroxy-4-methylpyrrolidine-2-carbonyl]piperazin-1-yl]-[2-methyl-4-[[3-[3-(trifluoromethyl)-1H-pyrazol-4-yl]imidazo[1,2-a]pyrazin-8-yl]amino]phenyl]methanone] the value was 0.964 µM; for `CCc1cc(Nc2nccn3c(-c4c[nH]nc4C(F)(F)F)cnc23)ccc1C(=O)N[C@@H](C)CN` [Example 349, N-[(2S)-1-aminopropan-2-yl]-2-ethyl-4-[[3-[3-(trifluoromethyl)-1H-pyrazol-4-yl]imidazo[1,2-a]pyrazin-8-yl]amino]benzamide formate], 1.63 µM. Take `CCc1cc(Nc2nccn3c(-c4cn(CC#N)nc4C(F)(F)F)cnc23)ccc1C(=O)NCC(=O)NC1C2CNCC21` (stereo not drawn) [Example 511, N-[2-(3-azabicyclo[3.1.0]hexan-6-ylamino)-2-oxo-ethyl]-4-[[3-[1-(cyanomethyl)-3-(trifluoromethyl)pyrazol-4-yl]imidazo[1,2-a]pyrazin-8-yl]amino]-2-ethyl-benzamide formate]: the IC90 amounted to 0.295 µM.

Consider `C=C(Cl)C(C)n1cc(-c2cnc3c(Nc4ccc(C(=O)NCCOCCN)c(CC)c4)nccn23)c(C(F)(F)F)n1` (stereo not drawn) [Example 275, N-[2-(2-aminoethoxy)ethyl]-4-[[3-[1-(3-chlorobut-3-en-2-yl)-3-(trifluoromethyl)pyrazol-4-yl]imidazo[1,2-a]pyrazin-8-yl]amino]-2-ethylbenzamide formate], for which the IC90 is 0.169 µM. For the compound `Cc1cc(Nc2nccn3c(-c4cn(C)nc4C(F)(F)F)cnc23)ccc1C(=O)NCCNC(=O)[C@@H]1C[C@@H](O)CN1` [Example 456, formic acid; (2S,4R)-4-hydroxy-N-[2-[[2-methyl-4-[[3-[1-methyl-3-(trifluoromethyl)pyrazol-4-yl]imidazo[1,2-a]pyrazin-8-yl]amino]benzoyl]amino]ethyl]pyrrolidine-2-carboxamide], the IC90 is 2.74 µM. On to `N#CCn1cc(-c2cnc3c(Nc4ccc(C(=O)N5CCN(C(=O)[C@@H]6CC[C@@H](N)C6)CC5)c(Cl)c4)nccn23)c(C(F)(F)F)n1` [Example 573, 2-(4-(8-((4-(4-((1R,3R)-3-aminocyclopentane-1-carbonyl)piperazine-1-carbonyl)-3-chlorophenyl)amino)imidazo[1,2-a]pyrazin-3-yl)-3-(trifluoromethyl)-1H-pyrazol-1-yl)acetonitrile formate], for which the IC90 stood at 0.169 µM. The same measure, in the same setting: for `CCc1cc(Nc2nccn3c(-c4c[nH]nc4C(F)(F)F)cnc23)ccc1C(=O)NCCCNC(=O)[C@@H]1C[C@@H](O)CN1` [Example 434, (2S,4R)-N-[3-[[2-ethyl-4-[[3-[3-(trifluoromethyl)-1H-pyrazol-4-yl]imidazo[1,2-a]pyrazin-8-yl]amino]benzoyl]amino]propyl]-4-hydroxypyrrolidine-2-carboxamide formate] the value was 0.463 µM; for `CCc1cc(Nc2nccn3c(-c4cn(C(C)C#N)nc4C(F)(F)F)cnc23)ccc1C(=O)NCCOCCN1CCCC1` (stereo not drawn) [Example 645, 4-((3-(1-(1-cyanoethyl)-3-(trifluoromethyl)-1H-pyrazol-4-yl)imidazo[1,2-a]pyrazin-8-yl)amino)-2-ethyl-N-(2-(2-(pyrrolidin-1-yl)ethoxy)ethyl)benzamide formate], 0.242 µM.

The experiment is the same for the next values; noted with them: Acinetobacter baumannii, ATCC17961, 16 h, strain ATCC 17961, OD600 growth over 16 h, read-out: A. baumannii ATCC 17961 IC90.
`CCc1cc(Nc2nccn3c(-c4cn(CC#N)nc4C(F)(F)F)cnc23)ccc1C(=O)NCC(=O)N1CCC(N)CC1` [Example 500, N-[2-(4-amino-1-piperidyl)-2-oxo-ethyl]-4-[[3-[1-(cyanomethyl)-3-(trifluoromethyl)pyrazol-4-yl]imidazo[1,2-a]pyrazin-8-yl]amino]-2-ethyl-benzamide formate]: the IC90 was 0.222 µM. Same read-out and setting: for `CCc1cc(Nc2nccn3c(-c4cn(C)nc4C(F)F)cnc23)ccc1C(=O)NCCOCCN` [Example 347, N-[2-(2-aminoethoxy)ethyl]-4-[[3-[3-(difluoromethyl)-1-methylpyrazol-4-yl]imidazo[1,2-a]pyrazin-8-yl]amino]-2-ethylbenzamide] the value was 1.67 µM; for `CNC(=O)c1ccc(Nc2nccn3c(-c4cn(Cc5cc[nH]n5)nc4C(F)(F)F)cnc23)cc1Cl` [Example 284, 2-chloro-N-methyl-4-[[3-[1-(1H-pyrazol-3-ylmethyl)-3-(trifluoromethyl)pyrazol-4-yl]imidazo[1,2-a]pyrazin-8-yl]amino]benzamide], 0.177 µM; for `CCc1cc(Nc2nccn3c(-c4cn(Cc5ccn(CC#N)n5)nc4C(F)(F)F)cnc23)ccc1C(=O)NC` [Example 589, 4-((3-(1-((1-(cyanomethyl)-1H-pyrazol-3-yl)methyl)-3-(trifluoromethyl)-1H-pyrazol-4-yl)imidazo[1,2-a]pyrazin-8-yl)amino)-2-ethyl-N-methylbenzamide], 0.84 µM. On the same count and under the same terms, for `CCc1cc(Nc2nccn3c(-c4c[nH]nc4C(F)(F)F)cnc23)ccc1C(=O)N1CCC(CN)CC1` [Example 372, [4-(aminomethyl)piperidin-1-yl]-[2-ethyl-4-[[3-[3-(trifluoromethyl)-1H-pyrazol-4-yl]imidazo[1,2-a]pyrazin-8-yl]amino]phenyl]methanone hydrochloride] the value was 0.957 µM. In the case of `Cc1cc(Nc2nccn3c(-c4c[nH]nc4C(F)(F)F)cnc23)ccc1C(=O)N1CCNCC1` [Example 480, [2-methyl-4-[[3-[3-(trifluoromethyl)-1H-pyrazol-4-yl]imidazo[1,2-a]pyrazin-8-yl]amino]phenyl]-piperazin-1-ylmethanone], the 90% effect concentration (IC90) stood at 1.84 µM. The same measure, in the same setting: for `CCc1cc(Nc2nccn3c(-c4c[nH]nc4C(F)(F)F)cnc23)ccc1C(=O)NCCOC[C@@H](C)N` [Example 204, N-[2-[(2R)-2-aminopropoxy]ethyl]-2-ethyl-4-[[3-[3-(trifluoromethyl)-1H-pyrazol-4-yl]imidazo[1,2-a]pyrazin-8-yl]amino]benzamide] the value was 0.256 µM. The same measure, in the same setting: for `O=C(c1ccc(Nc2nccn3c(-c4c[nH]nc4C(F)(F)F)cnc23)cc1Cl)N1CCN(C(=O)[C@@H]2CCNC2)CC1` [Example 197, [2-chloro-4-[[3-[3-(trifluoromethyl)-1H-pyrazol-4-yl]imidazo[1,2-a]pyrazin-8-yl]amino]phenyl]-[4-[(3R)-pyrrolidine-3-carbonyl]piperazin-1-yl]methanone] the value was 0.16 µM; for `Cc1cc(Nc2nccn3c(-c4cn(CC(F)F)nc4C(F)(F)F)cnc23)cc(F)c1C(=O)N[C@H](C)CNC(=O)C1CCNCC1` [Example 705, (R)-N-(2-(4-((3-(1-(2,2-difluoroethyl)-3-(trifluoromethyl)-1H-pyrazol-4-yl)imidazo[1,2-a]pyrazin-8-yl)amino)-2-fluoro-6-methylbenzamido)propyl)piperidine-4-carboxamide], 0.391 µM.

The experiment is the same for the next values; noted with them: strain ATCC 17961, OD600 growth over 16 h, read-out: A. baumannii ATCC 17961 IC90.
Turning to `C=CCn1cc(-c2cnc3c(Nc4ccc(C(=O)NCCOC[C@@H](C)N)c(CC)c4)nccn23)c(C(F)(F)F)n1` [Example 148, N-[2-[(2R)-2-aminopropoxy]ethyl]-2-ethyl-4-[[3-[1-prop-2-enyl-3-(trifluoromethyl)pyrazol-4-yl]imidazo[1,2-a]pyrazin-8-yl]amino]benzamide], the IC90 worked out at 0.084 µM. On the same count and under the same terms, for `C#CCn1cc(-c2cnc3c(Nc4cc(C)c(C(=O)NCCOCCN)c(F)c4)nccn23)c(C(F)(F)F)n1` [Example 59, N-[2-(2-aminoethoxy)ethyl]-2-fluoro-6-methyl-4-[[3-[1-prop-2-ynyl-3-(trifluoromethyl)pyrazol-4-yl]imidazo[1,2-a]pyrazin-8-yl]amino] benzamide] the value was 0.216 µM; for `N#CCn1cc(-c2cnc3c(Nc4ccc(C(=O)N5CCN(C(=O)N6CCC(N)CC6)CC5)c(Cl)c4)nccn23)c(C(F)(F)F)n1` [Example 178, 2-[4-[8-4-[4-(4-aminopiperidine-1-carbonyl)piperazine-1-carbonyl]-3-chloroanilino]imidazo[1,2-a]pyrazin-3-yl]-3-(trifluoromethyl) pyrazol-1-yl]acetonitrile formate], 0.161 µM.
